The record followed here is patent US7034016B2, “8-phenyl-6,9-dihydro-[1,2,4]triazolo[3,4-i]purin-5-one derivatives” (Almirall Prodesfarma, S.A., priority 1999, dated 2006).

For the assay, the target named is T1, cyclic GMP specific phosphodiesterase (PDE 5) (Homo sapiens, UniProt O76074).
T1 construct: isolated from human platelet lysates by ion exchange chromatography using a Mono-Q column; from tissue; host or cells: human platelets (lysate, Mono-Q ion exchange fraction)
The assay is described as follows: PDE 5 inhibitory activity (enzyme isolated from human platelet lysates, [3H]-cyclic GMP substrate). To be noted: PDE 5 from human platelet lysates; 0.25 mM [3H]-cyclic GMP as substrate. The format is biochemical. As to the method: The cyclic GMP specific phosphodiesterase (PDE 5) was isolated from human platelet lysates by ion exchange chromatography using a Mono-Q column. The enzyme activity was determined using 0.25 mM [3H]-cyclic GMP as substrate. The purification of the enzyme and the assessment of the PDE 5 inhibitory activity of our compounds were performed essentially as described by Gristwood et al., Br. J. Pharmacol. 1992, 105, 985–991.

Take “8-[5-(4-Methyl-[1,4]diazepane-1-sulfonyl)-2-propoxyphenyl]-6-propyl-6,9-dihydro-[1,2,4]triazolo[3,4-i]purin,5-one [Example 22]”: the IC50 (as a rule, the concentration at which inhibition is half-maximal) stood at 3.7 nM.

`CCCOc1ccc(S(=O)(=O)N2CCN(C)CC2)cc1-c1nc2c([nH]1)c1nncn1c(=O)n2CC` [Example 4, 6-Ethyl-8-[5-(4-methylpiperazine-1-sulphonyl)-2-propoxyphenyl]-6,9-dihydro-[1,2,4]triazolo[3,4-i]purin-5-one] gave an IC50 of 11 nM.

For the compound `CCCCOc1ccc(S(=O)(=O)N2CCN(C)CC2)cc1-c1nc2c([nH]1)c1nncn1c(=O)n2CC` [Example 6], inhibition was half-maximal at 13 nM (IC50).

On to `CCCOc1ccc(S(=O)(=O)Nc2ccncc2)cc1-c1nc2c([nH]1)c1nncn1c(=O)n2CCC` [Example 17, 3-(5-Oxo-6-propyl-6,9-dihydro-5H-[1,2,4]triazolo[3,4-i]purin-8-yl)-4-propoxy-N-pyridin-4-yl-benzenesulphonamide], for which the IC50 came to 1.5 nM.

For the compound `CCCOc1ccc(S(=O)(=O)N2CCN(C)CC2)cc1-c1nc2c([nH]1)c1nncn1c(=O)n2CCC` [Example 18, 8-[5-(4-Methylpiperazinosulphonyl)-2-propoxyphenyl]-6-propyl-6,9-dihydro-[1,2,4]triazolo[3,4-i]purin-5-one], the IC50 stood at 14 nM.

Compound `CCCOc1ccc(S(=O)(=O)N2CCN(CCO)CC2)cc1-c1nc2c([nH]1)c1nncn1c(=O)n2CCC` [Example 27, 8-{5-[4-(2-Hydroxyethyl)piperazine-1-sulphonyl]-2-propoxyphenyl}-6-propyl-6,9-dihydro-[1,2,4]triazolo[3,4-i]purin-5-one] displayed a concentration for half-maximal inhibition (IC50) of 4 nM.

`CCCCn1c(=O)n2cnnc2c2[nH]c(-c3cc(S(=O)(=O)N4CCN(CCO)CC4)ccc3OCCC)nc21` [Example 43, 6-Butyl-8-(2-propoxy-5-[4-(2-hydroxyethyl)piperazine-1-sulphonyl]phenyl}-6,9-dihydro[1,2,4]triazolo[3,4-i]purin-5-one]: half-maximal inhibition (IC50) required 4 nM.

`CCCOc1ccc(S(=O)(=O)N2CCN[C@@H](C)C2)cc1-c1nc2c([nH]1)c1nncn1c(=O)n2CCC` [Example 86, 8-[5-((S)-3-Methylpiperazine-1-sulfonyl)-2-propoxyphenyl]-6-propyl-6,9-dihydro-[1,2,4]triazolo[3,4-i]purin-5-one]: the concentration for half-maximal inhibition (IC50) was 1.4 nM.

`CCCOc1ccc(S(=O)(=O)N2C[C@@H]3C[C@H]2CN3C)cc1-c1nc2c([nH]1)c1nncn1c(=O)n2CCC` [Example 89, 8-[5-((1S,4S)-5-Methyl-2,5-diazabicyclo[2.2.1]heptane-2-sulfonyl)-2-propoxyphenyl]-6-propyl-6,9-dihydro-[1,2,4]triazolo[3,4-i]purin-5-one] yielded a concentration for half-maximal inhibition (IC50) of 0.51 nM.

`CCCOc1ccc(S(=O)(=O)N2CC(CN(C)C)C2)cc1-c1nc2c([nH]1)c1nncn1c(=O)n2CCC` [Example 91, 8-[5-(3-Dimethylaminomethylazetidine-1-sulfonyl)-2-propoxyphenyl]-6-propyl-6,9-dihydro-[1,2,4]triazolo[3,4-i]purin-5-one] gave an IC50 of 0.97 nM.

`CCCOc1ccc(S(=O)(=O)N2C[C@@H](C)N[C@@H](C)C2)cc1-c1nc2c([nH]1)c1nncn1c(=O)n2CCC` [Example 93, 8-[5-((3R,5S)-3,5-Dimethylpiperazine-1-sulfonyl)-2-propoxyphenyl]-6-propyl-6,9-dihydro-[1,2,4]triazolo[3,4-i]purin-5-one] came in with an IC50 of 0.85 nM.

`CCCOc1ccc(S(=O)(=O)N2CCCN(CCO)CC2)cc1-c1nc2c([nH]1)c1nncn1c(=O)n2CCC` [Example 105, 8-{5-[4-(2-Hydroxyethyl)-[1,4]diazepane-1-sulfonyl]-2-propoxyphenyl}-6-propyl-6,9-dihydro-[1,2,4]triazolo[3,4-i]purin-5-one] came in with an IC50 of 0.34 nM.

As for `CCCOc1ccc(S(=O)(=O)N2CCN(C(C)(C)CO)CC2)cc1-c1nc2c([nH]1)c1nncn1c(=O)n2CCC` [Example 108, 8-{5-[4-(2-Hydroxy-1,1-dimethylethyl)piperazine-1-sulfonyl]-2-propoxyphenyl}-6-propyl-6,9-dihydro-[1,2,4]triazolo[3,4-i]purin-5-one], half-maximal inhibition (IC50) was put at 1.6 nM.

`CCCCn1c(=O)n2cnnc2c2[nH]c(-c3cc(S(=O)(=O)N4CCN(C(C)(C)CO)CC4)ccc3OCCC)nc21` [Example 138, 6-Butyl-8-{5-[4-(2-hydroxy-1,1-dimethylethyl)piperazine-1-sulfonyl]-2-propoxyphenyl}-6,9-dihydro-[1,2,4]triazolo[3,4-i]purin-5-one] displayed a 50% inhibitory concentration (IC50) of 0.84 nM.

“N-(3-Dimethylamino-2,2-dimethylpropyl)-3-(oxopropyl-6,9-dihydro-5H-[1,2,4]triazolo[3,4-i]purin-8-yl)-4-propoxybenzenesulfonamide [Example 101]” showed an IC50 of 0.54 nM.
